Measured values reported in paper PMC12622802, “Potent kinase inhibitors from the Merck KGaA OGHL: Novel hits against Trypanosoma brucei with potential for repurposing” (PLOS Neglected Tropical Diseases, 2025).
Read-outs that look alike come from different tables or passages of the source.

How the values were obtained:
[1] = tested on: bloodstream forms of T. b. brucei Lister 427; test: Resazurin reduction growth inhibition assay against bloodstream forms of T. b. brucei; assay type: cell-based, Trypanosoma brucei brucei; conditions: read-out: IC50 ± SD (µM) T. b. b.
Experimental: Bloodstream forms of T. b. brucei Lister 427, a virulent laboratory strain of Trypanosoma brucei were cultured in HMI-9 medium as previously described. […] The resulting signal measured between 570 nm and 590 nm, is directly proportional to the quantity of viable parasites. […] After incubation, a working solution of resazurin (0.15 mg/mL in DPBS) was added to the plates in a 1:10 (v/v) ratio, followed by incubation for 4 hours at 37 °C with 5% CO2. Fluorescence was measured using an Infinite M200 microplate reader (Tecan) at excitation and emission wavelengths of 530 nm and 590 nm, respectively. Compound achieving ≥ 50% inhibition of trypanosomes were selected for further dose-response studies.
Compounds that adhered to the cutoff criterion (≥ 50% inhibition) were serially diluted and tested for their half-maximal inhibitory concentrations (IC50). […] Dose-response curves were generated using GraphPad Prism software (version 8.0). […]
Data were analysed using Microsoft Excel and GraphPad Prism 8.0. Nonlinear regression with a sigmoidal dose-response fit model was applied to the data to determine IC50 and CC50 values.

[2] = tested on: HepG2 (human hepatocyte carcinoma) cells; test: Cytotoxicity, resazurin reduction assay, HepG2; assay type: cell-based
Experimental: (§1) Vero E6 (African green monkey kidney), Raw264.7 (murine macrophages) and HepG2 (human hepatocyte carcinoma) cell lines, sourced from the American Type Culture Collection, were cultured in DMEM supplemented with 10% (v/v) heat-inactivated fetal bovine serum, 1% (v/v) non-essential amino acids, and 1% (v/v) penicillin-streptomycin. Cells were maintained at 37 °C in a 5% CO2 atmosphere. For cytotoxicity testing, they were seeded (90 µL) in 96-well plates at a density of 1x10^4 cells/well, in duplicate, and allowed to adhere overnight. Serial dilutions (50-0.08 µM) of the compounds were prepared, and 10 µL of each were incubated with the monolayer for 48 hours. Podophyllotoxin was tested as a positive control at 10 μM and 0.5% DMSO (100% cell viability) was used as negative control. Cell viability was then assessed using the resazurin reduction assay, as described above. The 50% cytotoxic concentration (CC50) was calculated using GraphPad Prism software (version 8.0), and selectivity indices (SIs) were determined by dividing the […].
(§2) Data were analysed using Microsoft Excel and GraphPad Prism 8.0. Nonlinear regression with a sigmoidal dose-response fit model was applied to the data to determine IC50 and CC50 values. Results represent the mean ± standard deviation (SD) from two independent experiments performed in duplicate.

[3] = Cytotoxicity, resazurin reduction assay, HepG2; assay type: cell-based, human; conditions: human
Experimental: as §1, §2

[4] = tested on: bloodstream forms of T. b. brucei; test: Trypanosome killing kinetics (time-kill assay); assay type: cell-based, Trypanosoma brucei brucei; conditions: for activity profile in time-kill assay (trypanocidal or cytostatic): 8IC50, 4IC50, IC50, 0.25IC50, over 72 hours
Experimental: (§3) To evaluate the killing kinetics of selected compounds, bloodstream forms of T. b. brucei (2 x 10⁵ cells/mL) were incubated in normal culture conditions in the presence of compounds at 8IC50, 4IC50, IC50, and 0.25IC50 concentrations in 24-well plates. Upon incubation, cultures were centrifuged at 0, 4, 8, 12, 24, 30, 36, 48, 60, and 72 hours’ time intervals at 2,500 rpm followed by motile trypanosomes enumeration using a Lumascope LS520 inverted microscope. To determine the mode of inhibition (parasitostatic or parasiticidal), a rescue experiment was conducted. Trypanosomes were exposed to the test doses (8IC50, 4IC50, IC50, and 0.25IC50) of the compounds for 4 hours. They were then washed three times with phosphate buffer saline (DPBS 1X), centrifuged at 2,500 rpm for 7 minutes, and resuspended in complete drug-free medium. These parasites were cultured under the same conditions, and motile organisms were enumerated with the Neubauer chamber at regular intervals over 72 hours. Data were plotted using GraphPad Prism 8.0 to determine the inhibition kinetics and classify the inhibitors as cidal or static. Pentamidine isethionate served as the reference compound and experiments were performed in duplicate.

[5] = Cytotoxicity, resazurin reduction assay, Vero; assay type: cell-based; conditions: African green monkey
Experimental: (§4) For cytotoxicity testing, they were seeded (90 µL) in 96-well plates at a density of 1x10^4 cells/well, in duplicate, and allowed to adhere overnight. […] Cell viability was then assessed using the resazurin reduction assay, as described above. […] Data were analysed using Microsoft Excel and GraphPad Prism 8.0. Nonlinear regression with a sigmoidal dose-response fit model was applied to the data to determine IC50 and CC50 values. Results represent the mean ± standard deviation (SD) from two independent experiments performed in duplicate.

[6] = target: focal adhesion kinase (FAK); design: method as in ref 31 = [31]; 31 Garcia-Echeverria C , Kanazawa T , Kawahara E , Masuya K , Matsuura N , Miyake T . 2, 4-pyrimidinediamines useful in the treatment of neoplastic diseases, inflammatory and immune system disorders .; conditions: cited from earlier work
[7] = Cytotoxicity, resazurin reduction assay, Raw264.7; assay type: cell-based, murine; conditions: mouse
Experimental: as §4

[8] = target: leucine-rich repeat kinase 2 (LRRK2); design: method as in ref 31 = [31]; 31 Garcia-Echeverria C , Kanazawa T , Kawahara E , Masuya K , Matsuura N , Miyake T . 2, 4-pyrimidinediamines useful in the treatment of neoplastic diseases, inflammatory and immune system disorders .; conditions: cited from earlier work
[9] = tested on: bloodstream forms of T. b. brucei; test: Rescue experiment (4 h exposure, washout, drug-free medium); assay type: cell-based, Trypanosoma brucei brucei; conditions: 72 hours monitoring, 4xIC50 and 8xIC50
Experimental: as §3

[10] = target: anaplastic lymphoma kinase (ALK); design: method as in ref 31 = [31]; 31 Garcia-Echeverria C , Kanazawa T , Kawahara E , Masuya K , Matsuura N , Miyake T . 2, 4-pyrimidinediamines useful in the treatment of neoplastic diseases, inflammatory and immune system disorders .; conditions: cited from earlier work
[11] = tested on: insulin-like growth factor 1 (IGF-1R); design: method as in ref 31 = [31]; 31 Garcia-Echeverria C , Kanazawa T , Kawahara E , Masuya K , Matsuura N , Miyake T . 2, 4-pyrimidinediamines useful in the treatment of neoplastic diseases, inflammatory and immune system disorders .; conditions: cited from earlier work
[12] = primary screen, DMSO stock solution, bloodstream form T. b. brucei Lister 427, 72 hours
[13] = Trypanosoma brucei, 72 h, primary screen, DMSO stock solution, bloodstream form T. b. brucei Lister 427, 72 hours

Row | Structure (SMILES) | IC50 [1, 12] [µM] | CC50 [2] [µM] | IC50 [1, 13] [µM] | CC50 at 48 h [3] [µM] | other results
1 | Oc1ccc2[nH]cc(CCCCN3CC=C(c4ccccc4)CC3)c2c1 [OGHL00007] | 5.3 ± 0.7 | > 50 | – | – | –
2 | CCC(C)[S+]([O-])c1ccc(-c2nc3ccncc3[nH]2)c(OC)c1 (stereo not drawn) [OGHL00019] | 2.49 ± 0.1 | 19.8 ± 2.72 | – | – | –
3 | COc1ccc(C(=O)N2CCC(C)(C)c3cc(C4=NNC(=O)SC4C)ccc32)cc1OC (stereo not drawn) [OGHL00025] | – | – | 9.22 ± 0.0007 | 33.3 ± 2.83 | –
4 | CCN=C(c1ccc(OC)c(OC)c1)N1CCCc2cc(C3=NNC(=O)SC3C)ccc21 (stereo not drawn) [OGHL00032] | – | – | – | 48.43 ± 0.25 | IC50 ([1]; Trypanosoma brucei, 72 h): 5.04 ± 0.16 µM
5 | CN(CCCCc1ccc(F)cc1)CCC(=O)c1ccc2[nH]c(=O)oc2c1 [OGHL00087] | 8.62 ± 0.093 | 27.3 ± 4.5 | – | – | –
6 | CCCc1nn(C)c2c(=O)[nH]c(-c3cc(C(=O)N=C(N)N)ccc3OCC)nc12 [OGHL00103] | 7.8 ± 0.07 | 41.5 ± 3.4 | – | – | –
7 | CNC(=O)c1cc(Oc2ccc(NC(=O)Nc3cc(C(F)(F)F)ccc3-n3ccnc3)cc2)ccn1 [OGHL00130] | 3.05 ± 0.14 | – | 3 | 12.9 ± 0.5 | –
8 | CNS(=O)(=O)c1ccccc1Nc1nc(Nc2cc(OC)c(OC)cc2C)ncc1Br [OGHL00133, 2-((5-bromo-2-((4,5-dimethoxy-2-methylphenyl)amino)pyrimidin-4-yl)amino)-N-methylbenzenesulfonamide] | – | – | – | > 50 | activity profile in time-kill assay (trypanocidal or cytostatic) [4]: cytostatic activity; CC50 at 48 h [5]: 1.01 ± 0.09 µM; IC50 [6]: 2.8 nM; CC50 at 48 h [7]: 4.5 ± 0.1 µM; IC50 [8]: 0.13 nM; effect after short exposure and washout (reversible or irreversible) [9]: reversible inhibitory effect; IC50 [10]: 30 nM; IC50 ([1]; Trypanosoma brucei, 72 h, confirmation screen, powdered form, 72 hours): 0.007 ± 0.00073 µM; IC50 [11]: < 80 nM
9 | CNS(=O)(=O)c1ccccc1Nc1nc(Nc2ccc(N3CCOCC3)cc2OC)ncc1Br [OGHL00134] | 1.31 ± 0.22 | – | 1.3 | 22.1 ± 5.06 | –
10 | COc1cccc(CNc2nnc(-c3c[nH]c4ncccc34)o2)c1 [OGHL00138] | 1.55 ± 0.2 | 23.1 ± 3.57 | – | – | –
11 | CCOc1cc(CCNC(=O)C[C@H]2S[C@@H](c3ccc(C#Cc4ccccc4)cc3)N(c3cccc(C(N)=O)c3)C2=O)ccc1OC [OGHL00152] | – | – | 8.87 ± 0.7 | – | –
12 | Cc1ccccc1-c1ccc(-c2nc(-c3ccc(CN(C)CCC(=O)O)c(F)c3)no2)cc1OCC1CC1 [OGHL00165] | 8.83 ± 0.09 | > 50 | – | – | –
13 | CCOc1cc(CCNC(=O)C[C@H]2S[C@@H](c3ccc(C#Cc4ccccc4)cc3)N(c3cccc(C(N)=O)c3)C2=O)ccc1O [OGHL00183] | – | – | 9.64 ± 0.05 | 50 | –
14 | COc1nc(/C=C/c2nc3n(n2)CCCC3c2ccccc2C(F)(F)F)ccc1-n1cnc(C)c1 (stereo not drawn) [OGHL00208] | – | – | 7.53 ± 1.27 | 2.36 ± 0.52 | –
15 | COc1nc(/C=C/c2nc3n(n2)CCC[C@@H]3c2ccccc2C(F)(F)F)ccc1-n1cnc(C)c1 [OGHL00211] | – | – | 2.37 ± 0.22 | 5.94 ± 2.55 | –
16 | COc1ccc(OC)c(CCNC(=O)c2cn3cc(-c4cc(OC)ccc4OC)nc3s2)c1 [OGHL00225] | – | – | 9.86 ± 0.0007 | > 50 | –
17 | COc1cc(OC)c(CCNC(=O)c2cn3cc(-c4cc(OC)ccc4OC)nc3s2)c(OC)c1 [OGHL00227] | – | – | 2.8 ± 0.08 | > 50 | fold increase in selectivity ([2]; relative to the analogue of the same series named in the sentence): 3.5 fold
18 | COc1cc(OC)c(CCNC(=O)c2ccc3nc(-c4cc(OC)ccc4OC)cn3c2)c(OC)c1 [OGHL00231] | 9.06 ± 0.13 | – | 9 | > 50 | –
19 | COc1ccc(OCCCO)cc1-c1cn2cc(-c3nnc(NCCCCc4ccccc4)o3)ccc2n1 [OGHL00236] | 6.19 ± 0.4 | 9.07 ± 0.94 | – | – | –
20 | COc1cc(OC)c(CCNC(=O)c2cn3cc(-c4cc(OCC#N)ccc4OC)nc3s2)c(OC)c1 [OGHL00238] | – | – | 2.67 ± 0.7 | 2.01 ± 0.46 | –
21 | COc1ccc(OCC(N)=O)cc1-c1cn2cc(C(=O)NCCc3c(OC)cccc3OC)sc2n1 [OGHL00241] | – | – | 2.28 ± 0.04 | 9.259 ± 0.019 | –
22 | COc1cc(C(=O)N(C)C)ccc1-c1cc2nccc(-c3ccc4ccncc4c3)c2o1 [OGHL00250] | 2.15 ± 0.2 | > 50 | – | – | –
23 | N=C(N)c1ccc(OCCCCCOc2ccc(C(=N)N)cc2)cc1 [Pentamidine isethionate, reference compound] | – | – | – | – | activity profile in time-kill assay (trypanocidal or cytostatic) [4]: complete and sustained parasite clearance across all tested concentrations; time of exposure to parasite killing / growth arrest ([4]; time-kill assay): ≤ 24 h
24 | COc1cc([C@@H]2c3cc4c(cc3[C@H](O)[C@H]3COC(=O)[C@H]23)OCO4)cc(OC)c1OC [Podophyllotoxin, reference compound] | – | – | – | – | CC50 at 48 h ([5]; confirmation screen, powdered form, 48 hours, read-out: CC50 ± SD (µM) Vero): 0.08 ± 0.005 µM; CC50 at 48 h ([7]; confirmation screen, powdered form, 48 hours, read-out: CC50 ± SD (µM) Raw): 0.016 ± 0.002 µM; CC50 at 48 h ([3]; primary screen, DMSO stock solution, 48 hours, read-out: CC50 ± SD (µM) HepG2): 0.031 ± 0.009 µM
